This data set in a line: Solubility Test with polysorbate 80 in water. Conditions: room temperature and 40° C. It counts as physicochemical. How it is done: In order to formulate a drug which is hardly soluble in water in an ophthalmic solution, it is necessary to devise to dissolve the drug in water. Since the nonionic surfactant acts as the solubilizing agent, the following solubility tests were performed in order to make sure of its required amount.
Test method: The present compound having a concentration exceeding solubility and polysorbate 80 were added to 10 ml of water, the mixtures were stirred at 5° C., room temperature and 40° C. for 24 hours respectively and then centrifuged at 20,000 rpm, and concentrations of the present compound contained in the supernatants were measured by the HPLC method. […] The “%” in the FIGURE is % by weight.

As for `CC(C)OC(=O)CCC/C=C\C[C@@H]1[C@@H](/C=C/C(F)(F)COc2ccccc2)[C@H](O)C[C@@H]1O` [the present compound, 16-Phenoxy-15-deoxy-15,15-difluoro-17,18,19,20-tetranorprostaglandin F2α isopropyl ester], the “Water-solubility of the present compound versus temperature” value (5° C., with polysorbate 80 (FIG. 1)) is recorded as “at low temperatures is higher than that at high temperatures”. Where the note is “water, stirred 24 hours at 5° C., supernatant by HPLC (FIG. 1)”, the “solubility of the present compound versus amount of polysorbate 80” value is recorded as “increases depending on amounts of polysorbate 80”.
